Test results from PubChem BioAssay (NCI).
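All cell lines were grown in 96-well plates and treated with compound for 48 hours. TGI: total growth inhibition.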

Columns and labels:
Assay in all cases: NCI tumour cell line growth inhibition, 48 h
SK-MEL-28 melanoma = tested on: SK-MEL-28 melanoma
NCI/ADR-RES ovarian = tested on: NCI/ADR-RES ovarian
IGROV1 ovarian = tested on: IGROV1 ovarian
NCI-H226 lung = tested on: NCI-H226 lung
T-47D breast = tested on: T-47D breast
A498 renal = tested on: A498 renal
K-562 leukemia = tested on: K-562 leukemia
OVCAR-3 ovarian = tested on: OVCAR-3 ovarian
MDA-MB-435 = tested on: MDA-MB-435
A549 NSCLC = tested on: A549 NSCLC
MOLT-4 leukemia = tested on: MOLT-4 leukemia
LOX IMVI melanoma = tested on: LOX IMVI melanoma
BT-549 breast = tested on: BT-549 breast
CAKI-1 renal = tested on: CAKI-1 renal
OVCAR-5 ovarian = tested on: OVCAR-5 ovarian
OVCAR-4 ovarian = tested on: OVCAR-4 ovarian
SK-OV-3 ovarian = tested on: SK-OV-3 ovarian
UACC-62 melanoma = tested on: UACC-62 melanoma
SF-295 CNS = tested on: SF-295 CNS
KM12 colon = tested on: KM12 colon
PC-3 prostate = tested on: PC-3 prostate
UACC-257 melanoma = tested on: UACC-257 melanoma
HCT-116 colon = tested on: HCT-116 colon
SR leukemia = tested on: SR leukemia
SK-MEL-2 melanoma = tested on: SK-MEL-2 melanoma
RXF 393 renal = tested on: RXF 393 renal
DU-145 prostate = tested on: DU-145 prostate
HCT-15 colon = tested on: HCT-15 colon
UO-31 renal = tested on: UO-31 renal
SK-MEL-5 melanoma = tested on: SK-MEL-5 melanoma
HOP-92 NSCLC = tested on: HOP-92 NSCLC
MALME-3M melanoma = tested on: MALME-3M melanoma
786-0 renal = tested on: 786-0 renal
SF-268 CNS = tested on: SF-268 CNS
SW-620 colon = tested on: SW-620 colon
EKVX NSCLC = tested on: EKVX NSCLC
M14 melanoma = tested on: M14 melanoma
NCI-H23 lung = tested on: NCI-H23 lung
ACHN renal = tested on: ACHN renal
TK-10 renal = tested on: TK-10 renal
RPMI-8226 leukemia = tested on: RPMI-8226 leukemia
U251 CNS = tested on: U251 CNS
SN12C renal = tested on: SN12C renal
OVCAR-8 ovarian = tested on: OVCAR-8 ovarian
SNB-19 CNS = tested on: SNB-19 CNS
MDA-N = tested on: MDA-N
HT29 colon = tested on: HT29 colon
HS 578T breast = tested on: HS 578T breast
MDA-MB-231 breast = tested on: MDA-MB-231 breast
NCI-H522 lung = tested on: NCI-H522 lung
HL-60(TB) leukemia = tested on: HL-60(TB) leukemia
MCF7 breast = tested on: MCF7 breast
SF-539 CNS = tested on: SF-539 CNS
COLO 205 colon = tested on: COLO 205 colon
HOP-62 NSCLC = tested on: HOP-62 NSCLC
SNB-75 CNS = tested on: SNB-75 CNS
CCRF-CEM leukemia = tested on: CCRF-CEM leukemia

CN1C(=O)C23CCCC2CC1(c1ccccc1)S3 (centres undefined)
TGI (SK-MEL-28 melanoma): > 100 µM
TGI (NCI/ADR-RES ovarian): > 100 µM
TGI (IGROV1 ovarian): > 100 µM
TGI (NCI-H226 lung): > 100 µM
TGI (T-47D breast): > 100 µM
TGI (A498 renal): > 100 µM
TGI (K-562 leukemia): > 100 µM
TGI (OVCAR-3 ovarian): > 100 µM
TGI (MDA-MB-435): > 100 µM
TGI (A549 NSCLC): > 100 µM
TGI (MOLT-4 leukemia): > 100 µM
TGI (LOX IMVI melanoma): > 100 µM
TGI (BT-549 breast): > 100 µM
TGI (CAKI-1 renal): > 100 µM
TGI (OVCAR-5 ovarian): > 100 µM
TGI (OVCAR-4 ovarian): > 100 µM
TGI (SK-OV-3 ovarian): > 100 µM
TGI (UACC-62 melanoma): > 100 µM
TGI (SF-295 CNS): > 100 µM
TGI (KM12 colon): > 100 µM
TGI (PC-3 prostate): > 100 µM
TGI (UACC-257 melanoma): 80.6 µM
TGI (HCT-116 colon): > 100 µM
TGI (SR leukemia): > 100 µM
TGI (SK-MEL-2 melanoma): > 100 µM
TGI (RXF 393 renal): > 100 µM
TGI (DU-145 prostate): > 100 µM
TGI (HCT-15 colon): > 100 µM
TGI (UO-31 renal): > 100 µM
TGI (SK-MEL-5 melanoma): > 100 µM
TGI (HOP-92 NSCLC): > 100 µM
TGI (MALME-3M melanoma): > 100 µM
TGI (786-0 renal): > 100 µM
TGI (SF-268 CNS): > 100 µM
TGI (SW-620 colon): > 100 µM
TGI (EKVX NSCLC): > 100 µM
TGI (M14 melanoma): > 100 µM
TGI (NCI-H23 lung): > 100 µM
TGI (ACHN renal): > 100 µM
TGI (TK-10 renal): > 100 µM
TGI (RPMI-8226 leukemia): > 100 µM
TGI (U251 CNS): > 100 µM
TGI (SN12C renal): > 100 µM
TGI (OVCAR-8 ovarian): > 100 µM
TGI (SNB-19 CNS): > 100 µM
TGI (MDA-N): > 100 µM
TGI (HT29 colon): > 100 µM
TGI (HS 578T breast): > 100 µM
TGI (MDA-MB-231 breast): > 100 µM
TGI (NCI-H522 lung): > 100 µM
TGI (HL-60(TB) leukemia): > 100 µM
TGI (MCF7 breast): > 100 µM
TGI (SF-539 CNS): > 100 µM
TGI (COLO 205 colon): > 100 µM
TGI (HOP-62 NSCLC): > 100 µM

CC[C@]12C=CCN3CC[C@@]4(c5cc(Br)c(OC)cc5N(C)[C@H]4[C@@](O)(C(=O)NC(Cc4c[nH]c5ccccc45)C(=O)OC)[C@@H]1O)[C@@H]32 (some centres undefined)
TGI (SK-MEL-28 melanoma): > 100 µM
TGI (NCI/ADR-RES ovarian): > 100 µM
TGI (IGROV1 ovarian): > 100 µM
TGI (NCI-H226 lung): > 100 µM
TGI (T-47D breast): > 100 µM
TGI (K-562 leukemia): > 100 µM
TGI (SNB-75 CNS): > 100 µM
TGI (OVCAR-3 ovarian): > 100 µM
TGI (MDA-MB-435): > 100 µM
TGI (A549 NSCLC): > 100 µM
TGI (MOLT-4 leukemia): > 100 µM
TGI (LOX IMVI melanoma): 90.9 µM
TGI (BT-549 breast): > 100 µM
TGI (CAKI-1 renal): > 100 µM
TGI (OVCAR-5 ovarian): > 100 µM
TGI (OVCAR-4 ovarian): > 100 µM
TGI (SK-OV-3 ovarian): > 100 µM
TGI (UACC-62 melanoma): > 100 µM
TGI (SF-295 CNS): > 100 µM
TGI (KM12 colon): > 100 µM
TGI (PC-3 prostate): > 100 µM
TGI (HCT-116 colon): > 100 µM
TGI (SR leukemia): 34.9 µM
TGI (SK-MEL-2 melanoma): > 100 µM
TGI (RXF 393 renal): 98.6 µM
TGI (DU-145 prostate): > 100 µM
TGI (HCT-15 colon): > 100 µM
TGI (UO-31 renal): > 100 µM
TGI (SK-MEL-5 melanoma): 75.8 µM
TGI (HOP-92 NSCLC): > 100 µM
TGI (MALME-3M melanoma): > 100 µM
TGI (786-0 renal): > 100 µM
TGI (SF-268 CNS): > 100 µM
TGI (SW-620 colon): > 100 µM
TGI (EKVX NSCLC): > 100 µM
TGI (M14 melanoma): > 100 µM
TGI (NCI-H23 lung): > 100 µM
TGI (ACHN renal): > 100 µM
TGI (RPMI-8226 leukemia): 46.3 µM
TGI (U251 CNS): > 100 µM
TGI (SN12C renal): > 100 µM
TGI (OVCAR-8 ovarian): > 100 µM
TGI (SNB-19 CNS): > 100 µM
TGI (MDA-N): > 100 µM
TGI (HT29 colon): > 100 µM
TGI (HS 578T breast): > 100 µM
TGI (MDA-MB-231 breast): > 100 µM
TGI (NCI-H522 lung): > 100 µM
TGI (CCRF-CEM leukemia): > 100 µM
TGI (HL-60(TB) leukemia): 91.3 µM
TGI (MCF7 breast): > 100 µM
TGI (SF-539 CNS): > 100 µM
TGI (COLO 205 colon): 21 µM
TGI (HOP-62 NSCLC): > 100 µM
